Here are results for five compounds from paper PMC2774616, “Cellular Assays for High-Throughput Screening for Modulators of Trk Receptor Tyrosine Kinases” (Current Chemical Genomics, 2008).

Data set [1] has as its system thapsigargin-induced NFAT-bla reporter activity. The data set can be described thus: Effect of RNAi oligos on thapsigargin-induced NFAT-bla reporter activity in TrkA-, TrkB- and TrkC-NFAT-bla CHO-K1 cells. The format is cell-based. The conditions noted are these: all three cell lines, 50 nM RNAi oligo, Thapsigargin 30 nM 5 h. The method, then:
Cells were plated in 96-well assay plates (Corning, catalog number 3603) at 6,000 cells/well in 100 µL growth medium (DMEM containing 10% dialyzed FBS, 0.1 mM NEAA and 25 mM HEPES), and incubated in 37°C, 5% CO2 incubator overnight. Next morning, Stealth™ RNAi (Invitrogen, catalog number 10620318) and Lipofectamine^TM RNAiMAX (Invitrogen, catalog number 13778) complexes were prepared according to the manufacturer’s protocol and added to the wells (50 nM RNAi oligos and 1µL RNAiMAX/well). RNAi oligo targeting for beta-lactamase was used as the positive control and a random-sequenced oligo with 48% GC content (Med GC) as the negative control. A set of 2 oligos for each Trk was used:
Cells were incubated with RNAi oligos at 37°C for 32 hours, followed by a medium change. Cells were incubated in Assay Medium at 37 °C for 16 hours and then stimulated with respective ligands (NGF, 0.77 nM; BDNF, 1 nM; NT-3, 0.72 nM and Thapsigargin, 30 nM) for 5 hours before beta-lactamase assay was performed as described above.

The next data set addresses T1, human TrkA (Homo sapiens, UniProt P04629).
T1 construct: Full length human TRKA, TRKB and TRKC cDNAs were synthesized by Blue Heron Biotechnology; expressed in transfected cells
The data set can be described thus: Inhibition of NGF-induced beta-lactamase activity in TrkA-NFAT-bla CHO-K1 cells. The format is cell-based.

Data set [2] relates to Thapsigargin-induced NFAT reporter activity, TrkA-NFAT-bla CHO-K1 cells. Description: Inhibition of Thapsigargin-induced NFAT reporter activity in TrkA-NFAT-bla CHO-K1 cells. Format: cell-based. The conditions noted are these: for IC50: TrkA cells, Thapsigargin 8 nM, 5 h, * values may not be accurate, curves did not reach saturation, read-out: IC50, TrkA, Thaps. The protocol: (§1) Cells in a sub-confluency state (or cryopreserved cells) were resuspended in Assay Medium (DMEM with GlutaMAX™ (Invitrogen, catalog number 10569) supplemented with 0.1% dialyzed FBS, 0.1 mM NEAA, 25 mM HEPES, 100 U/mL Penicillin and 100 µg/mL Streptomycin) and plated in a 384-well assay plate (Corning, Lowell, MA, catalog number 3712) at 10,000 cells (32 μL) per well. 32 μL of Assay Medium without cells were plated in Cell-free Control wells on the same plate. 4 µL 1% DMSO was added to each well to reach final DMSO concentration of 0.1% to mimic the screening situation where compounds dissolved in DMSO are added to test wells. Cells were then stimulated with 4 µL/well 10 x ligands (NGF, BDNF, NT-4 (Invitrogen, catalog number PHC7024), NT-3 or Thapsigargin (Sigma, St. Louis, MO)) over the indicated concentration range (1 pM ~ 50000 pM) for 5 hours before adding 8 µL/well 6X LiveBLAzer™-FRET B/G Substrate mixture (Invitrogen, catalog number K1096) for 2 hours. Fluorescence intensity at excitation 406 nm and emission 460 nm and 530 nm were obtained using Tecan Safire^2 fluorescence plate reader (Tecan, Durham, NC) (Table 1). After subtracting the average fluorescence intensity from the Cell-free Control wells, the 460nm/530nm emission ratio was calculated. Response Ratio is a measurement of the assay window and is calculated as the 460nm/530nm Emission Ratio of the stimulated wells divided by the 460nm/530nm Emission Ratio of the unstimulated wells. Response Ratios were plotted against test ligand concentrations in log scale and then analyzed using Prism software (GraphPad Software, Inc. San Diego, CA). Sigmoidal dose-response equation with varying slope was used to fit the data and generate EC50 values. Z’-factor values were calculated as: Z’-factor = 1 - [(3 x stdevunstim + 3 x stdevmaxstim) / (avgmaxstim – avgunstim)].
(§2) Cells were then stimulated with 4 µL of neurotrophins at 10 x EC80 concentrations (EC80 concentrations are: NGF, 0.77 nM; BDNF, 1 nM; NT-3, 0.72 nM; Thapsigargin, 8 nM) for 5 hours before beta-lactamase assay was performed as described above.

Data set [3] deals with Thapsigargin-induced NFAT reporter activity, TrkB-NFAT-bla CHO-K1 cells. The data set can be described thus: Inhibition of Thapsigargin-induced NFAT reporter activity in TrkB-NFAT-bla CHO-K1 cells. The conditions noted are these: for IC50: TrkB cells, Thapsigargin 8 nM, 5 h, * values may not be accurate, curves did not reach saturation, read-out: IC50, TrkB, Thaps. Format: cell-based. The protocol: as §1, §2

The target of the next data set is T2, human TrkB (Homo sapiens, UniProt Q16620).
T2 construct: Full length human TRKA, TRKB and TRKC cDNAs were synthesized by Blue Heron Biotechnology; expressed in transfected cells
T2 sequence (Q16620 32-838 isoform Q16620-4 limits assumed): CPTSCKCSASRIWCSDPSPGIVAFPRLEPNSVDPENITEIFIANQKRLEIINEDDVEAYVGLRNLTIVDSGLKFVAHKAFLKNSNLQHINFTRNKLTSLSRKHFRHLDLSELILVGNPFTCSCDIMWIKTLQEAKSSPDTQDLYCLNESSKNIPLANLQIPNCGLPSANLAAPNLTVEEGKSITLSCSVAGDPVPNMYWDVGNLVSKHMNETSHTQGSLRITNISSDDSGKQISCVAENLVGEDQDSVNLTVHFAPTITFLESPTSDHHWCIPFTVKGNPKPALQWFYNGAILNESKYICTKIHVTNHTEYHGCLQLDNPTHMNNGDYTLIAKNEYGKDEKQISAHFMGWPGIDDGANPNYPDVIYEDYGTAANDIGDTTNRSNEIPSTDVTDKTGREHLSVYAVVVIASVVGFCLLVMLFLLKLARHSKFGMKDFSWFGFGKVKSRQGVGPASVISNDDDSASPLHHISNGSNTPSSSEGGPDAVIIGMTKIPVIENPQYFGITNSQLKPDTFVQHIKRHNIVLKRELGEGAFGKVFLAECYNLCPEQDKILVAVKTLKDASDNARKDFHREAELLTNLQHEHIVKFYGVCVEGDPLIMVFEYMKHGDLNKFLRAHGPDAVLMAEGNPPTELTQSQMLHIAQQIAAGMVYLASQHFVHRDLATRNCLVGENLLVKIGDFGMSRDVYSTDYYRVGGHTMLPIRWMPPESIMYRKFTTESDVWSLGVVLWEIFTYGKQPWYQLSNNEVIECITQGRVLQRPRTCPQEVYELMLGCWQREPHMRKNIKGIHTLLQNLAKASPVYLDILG
Description: Inhibition of BDNF-induced beta-lactamase activity in TrkB-NFAT-bla CHO-K1 cells. Format: cell-based.

A further data set deals with T3, human TrkC (Homo sapiens, UniProt Q16288).
T3 construct: Full length human TRKA, TRKB and TRKC cDNAs were synthesized by Blue Heron Biotechnology; expressed in transfected cells
T3 sequence (Q16288 32-825 isoform Q16288-3 limits assumed): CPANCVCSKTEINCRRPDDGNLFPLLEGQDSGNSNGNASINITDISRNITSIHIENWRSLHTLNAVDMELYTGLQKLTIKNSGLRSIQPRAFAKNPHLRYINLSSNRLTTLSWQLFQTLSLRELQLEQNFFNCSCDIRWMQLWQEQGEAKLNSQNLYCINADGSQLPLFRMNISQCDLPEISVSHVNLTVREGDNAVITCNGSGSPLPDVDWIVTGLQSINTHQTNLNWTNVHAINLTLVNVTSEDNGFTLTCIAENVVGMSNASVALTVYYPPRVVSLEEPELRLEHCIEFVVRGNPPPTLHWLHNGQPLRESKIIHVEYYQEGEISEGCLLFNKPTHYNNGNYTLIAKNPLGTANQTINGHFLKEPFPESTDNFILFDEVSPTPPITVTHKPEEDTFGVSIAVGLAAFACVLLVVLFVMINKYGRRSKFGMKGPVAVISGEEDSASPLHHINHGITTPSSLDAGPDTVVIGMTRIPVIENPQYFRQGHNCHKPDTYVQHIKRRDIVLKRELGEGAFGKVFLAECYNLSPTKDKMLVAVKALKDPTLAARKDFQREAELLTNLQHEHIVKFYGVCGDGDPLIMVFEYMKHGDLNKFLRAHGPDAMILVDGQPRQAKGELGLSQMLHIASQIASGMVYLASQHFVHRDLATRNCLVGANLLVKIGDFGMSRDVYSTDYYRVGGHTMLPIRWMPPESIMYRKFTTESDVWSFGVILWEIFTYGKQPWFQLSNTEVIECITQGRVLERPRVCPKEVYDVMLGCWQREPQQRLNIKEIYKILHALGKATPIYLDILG
Description: Inhibition of NT-3-induced beta-lactamase activity in TrkC-NFAT-bla CHO-K1 cells. The format is cell-based. The method, then: as §1

The subject of data set [4] is Thapsigargin-induced NFAT reporter activity, TrkC-NFAT-bla CHO-K1 cells. The data set can be described thus: Inhibition of Thapsigargin-induced NFAT reporter activity in TrkC-NFAT-bla CHO-K1 cells. The format is cell-based. The conditions noted are these: for IC50: TrkC cells, Thapsigargin 8 nM, 5 h, * values may not be accurate, curves did not reach saturation, read-out: IC50, TrkC, Thaps. The protocol:
as §1, §2

The test system of a further data set is TrkA. The arrangement: method as in PMID 7683492. The conditions noted are these: cited from earlier work.
Where [5] appears, read: 30 min pretreatment, BDNF at EC80 1 nM, 5 h, read-out: IC50, TrkB, BDNF.
Where [6] appears, read: 30 min pretreatment, NT-3 at EC80 0.72 nM, 5 h, read-out: IC50, TrkC, NT-3.
[7] abbreviates: at the highest concentration tested.

As a reminder, the IC50 is the midpoint of a concentration-inhibition curve.

Where two headings read alike, the source gives them in different places. Where only a bound is given, the exact number is not on record here.

T1 sequence (P04629 33-796): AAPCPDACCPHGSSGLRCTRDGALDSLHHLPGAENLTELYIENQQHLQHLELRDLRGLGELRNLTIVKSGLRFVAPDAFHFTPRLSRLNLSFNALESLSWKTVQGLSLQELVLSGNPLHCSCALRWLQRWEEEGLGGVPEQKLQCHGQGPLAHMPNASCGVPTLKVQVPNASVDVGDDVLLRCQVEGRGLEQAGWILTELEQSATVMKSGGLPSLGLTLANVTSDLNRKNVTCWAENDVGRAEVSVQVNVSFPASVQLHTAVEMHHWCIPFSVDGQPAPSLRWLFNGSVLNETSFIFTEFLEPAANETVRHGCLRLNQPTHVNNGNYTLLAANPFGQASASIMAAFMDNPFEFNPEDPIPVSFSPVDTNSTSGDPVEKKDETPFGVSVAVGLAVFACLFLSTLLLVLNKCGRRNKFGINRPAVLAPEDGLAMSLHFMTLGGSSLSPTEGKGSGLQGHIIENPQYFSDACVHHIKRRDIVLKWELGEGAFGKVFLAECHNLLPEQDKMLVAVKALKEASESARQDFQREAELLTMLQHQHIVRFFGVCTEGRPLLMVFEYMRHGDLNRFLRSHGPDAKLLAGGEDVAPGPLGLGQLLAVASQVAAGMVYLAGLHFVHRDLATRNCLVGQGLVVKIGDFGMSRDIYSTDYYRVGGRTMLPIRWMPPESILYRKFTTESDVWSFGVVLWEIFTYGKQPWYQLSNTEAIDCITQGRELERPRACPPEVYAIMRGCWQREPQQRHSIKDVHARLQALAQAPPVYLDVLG

Take “TRKC2: Stealth RNAi oligo for TrkC, CCAGACCAAUCUGAACUGGACCAAU (Stealth RNAi oligo, modification pattern not given here)”: in data set [1], the “effect on thapsigargin-induced NFAT-bla reporter activity (in words)” value was “did not inhibit”.

Consider `CC(C)(C)c1cc(/C=C(\C#N)C(N)=S)cc(C(C)(C)C)c1O` [AG879], for which the half-inhibitory concentration (IC50) at human TrkA (30 min pretreatment, NGF at EC80 0.77 nM, 5 h, read-out: IC50, TrkA, NGF) was 1330 nM; at human TrkA (NGF-induced, read-out: IC50, TrkA-mediated NFAT-bla reporter activity), approximately 1000 nM; in data set [2] it was 112 nM; in data set [3], 51 nM; at human TrkB (setting [5]) it was 1010 nM; at human TrkB (BDNF-induced, read-out: IC50, TrkB-mediated NFAT-bla reporter activity), approximately 1000 nM. In addition, the half-inhibitory concentration (IC50) at human TrkC (setting [6]) is 1310 nM; at human TrkC (NT-3-induced, read-out: IC50, TrkC-mediated NFAT-bla reporter activity) it was approximately 1000 nM; in data set [4], 231 nM. Besides, in the data set with TrkA, the “concentrations inhibiting NGF induced TrkA autophosphorylation and PLC-γ phosphorylation” value is reported as “micro-molar concentrations”.

On to `COC(=O)[C@@]1(O)C[C@H]2O[C@]1(C)n1c3ccccc3c3c4c(c5c6ccccc6n2c5c31)C(=O)NC4` [K252a], for which the IC50 was 570 nM in data set [2]; more than 1000 nM in data set [3]; 11 nM on human TrkB (setting [5]); 30 nM on human TrkC (setting [6]); 500 nM in data set [4]. For the same compound, the “effect on Thapsigargin induced reporter activity, TrkA cells (in words)” value in data set [2] (setting [7]) is “partial inhibitory effect”. Besides, the “effect on Thapsigargin induced reporter activity, TrkB cells (in words)” value in data set [3] (setting [7]) is given as “partial inhibitory effect”. The “IC50 in words, BDNF-induced beta-lactamase activity in TrkB cells” value against human TrkB was “low nano-molar”. Moreover, the “IC50 in words, NT-3-induced beta-lactamase activity in TrkC cells” value at human TrkC is given as “low nano-molar”. In data set [4] (setting [7]), the “effect on Thapsigargin induced reporter activity, TrkC cells (in words)” value is “partial inhibitory effect”.

Regarding `Cn1cc(/C=C2\C(=O)Nc3cccnc32)c2ccccc21` [GW441756], the IC50 in data set [2] was 2830 nM; in data set [3], 8200 nM; in data set [4], 8970 nM.

Take “TRKB2: Stealth RNAi oligo for TrkB, ACACCACGAACAGAAGUAAUGAAAU (Stealth RNAi oligo, modification pattern not given here)”: in data set [1], the “inhibitory effect on thapsigargin-induced NFAT-bla reporter activity” value was “about 50%”.
